Measured values: patent US7425557B2, “Inhibitors of glycogen synthase kinase 3” (Novartis Vaccines and Diagnostics, Inc., priority 1998, dated 2008)

Molecular target: human GSK3β (Homo sapiens, UniProt P49841)
Experiment: Screening for GSK3 inhibitory activity using a cell-free assay
Assay type: biochemical
Details: read-out: IC50 with respect to GSK3
In short: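 Radiometric cell-free assay with recombinant human GSK3β phosphorylating a biotinylated peptide substrate for 3 h. Reactions were stopped with 50 μM ATP/20 mM EDTA and captured on streptavidin plates. Incorporated radiolabel was counted by scintillation and plotted against compound concentration.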

Sequence of human GSK3β (P49841 whole entry): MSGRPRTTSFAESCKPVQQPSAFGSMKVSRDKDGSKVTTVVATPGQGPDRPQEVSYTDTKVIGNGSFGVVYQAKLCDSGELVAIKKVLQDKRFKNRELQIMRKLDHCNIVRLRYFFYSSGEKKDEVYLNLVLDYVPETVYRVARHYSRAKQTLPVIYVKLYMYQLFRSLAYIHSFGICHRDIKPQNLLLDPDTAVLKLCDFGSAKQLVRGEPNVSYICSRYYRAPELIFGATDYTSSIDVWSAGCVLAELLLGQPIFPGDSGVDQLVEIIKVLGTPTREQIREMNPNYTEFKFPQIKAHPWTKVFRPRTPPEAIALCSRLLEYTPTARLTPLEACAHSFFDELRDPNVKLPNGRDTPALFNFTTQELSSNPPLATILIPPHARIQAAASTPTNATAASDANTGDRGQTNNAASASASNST

## Nc1nc(NCCNc2ncc(N3C(=O)c4ccccc4C3=O)c(-c3ccc(Cl)cc3Cl)n2)ccc1[N+](=O)[O-] [2-[2-({2-[(6-amino-5-nitro(2-pyridyl))amino]ethyl}amino)-4-(2,4-dichlorophenyl)pyrimidin-5-yl]isoindoline-1,3-dione]
  IC50: ≤ 1 µM

## N#Cc1ccc(-c2nc(NCCNc3ccc([N+](=O)[O-])cn3)ncc2C(=O)NC(CO)C(N)=O)cc1 (centres unmarked) [N-(1-carbamoyl-2-hydroxyethyl)[4-(4-cyanophenyl)-2-({2-[(5-nitro(2-pyridyl))-amino]ethyl}amino)pyrimidin-5-yl]carboxamide]
  IC50: ≤ 1 µM

## CCOC(=O)c1cnc(NCCNc2ccc([N+](=O)[O-])cn2)nc1-c1cccc([N+](=O)[O-])c1 [ethyl 2-({2-[(5-nitro(2-pyridyl))amino]ethyl}amino)-4-(3-nitrophenyl)pyrimidine-5-carboxylate]
  IC50: ≤ 10 µM

## Cc1nc(NCCNc2ccc([N+](=O)[O-])cn2)ncc1C(=O)NC(Cc1ccccc1)C(N)=O (centres unmarked) [N-(1-carbamoyl-2-phenylethyl)[4-methyl-2-({2-[(5-nitro(2-pyridyl))amino]ethyl}amino)pyrimidin-5-yl]carboxamide]
  IC50: ≤ 10 µM

## CC(C)(C)OC(=O)c1cnc(NCCNc2ccc([N+](=O)[O-])cn2)nc1-c1ccc(C#N)cc1 [tert-butyl 4-(4-cyanophenyl)-2-({2-[(5-nitro(2-pyridyl))amino]-ethyl}amino)pyrimidine-5-carboxylate]
  IC50: ≤ 1 µM

## Cc1cn(-c2cnc(NCCNc3ccc([N+](=O)[O-])cn3)nc2-c2ccc(Cl)cc2Cl)cn1 [[4-(2,4-dichlorophenyl)-5-(4-methylimidazolyl)pyrimidin-2-yl]{2-[(5-nitro(2-pyridyl))amino]ethyl}amine]
  IC50: ≤ 1 µM

## NC(=O)c1ccc(-c2ccnc(NCCNc3ccccn3)n2)cc1 [4-(2-{[2-(2-pyridylamino)ethyl]-amino}pyrimidin-4-yl)benzamide]
  IC50: ≤ 1 µM

## O=C(O)c1c(-c2ccccc2)nc(NCCNc2ccc([N+](=O)[O-])cn2)nc1-c1ccc([N+](=O)[O-])cc1 [2-({2-[(5-nitro(2-pyridyl))amino]ethyl}-amino)-6-(4-nitrophenyl)-4-phenylpyrimidine-5-carboxylic acid]
  IC50: ≤ 10 µM

## O=[N+]([O-])c1ccc(NCCNc2ncc(-c3ccccc3)c(-c3ccc(O)cc3)n2)nc1 [4-[2-({2-[(5-nitro(2-pyridyl))amino]ethyl}amino)-5-phenylpyrimidin-4-yl]phenol]
  IC50: ≤ 10 µM

## CCOC(=O)c1cnc(NCCNc2ccc([N+](=O)[O-])cn2)nc1-c1cc(Cl)cc(Cl)c1 [ethyl 4-(3,5-dichlorophenyl)-2-({2-[(5-nitro(2-pyridyl))amino]ethyl}amino)-pyrimidine-5-carboxylate]
  IC50: ≤ 10 µM

## CCc1ccc(-c2nc(NCCNc3ccc([N+](=O)[O-])c(N)n3)ncc2-n2ccnc2)cc1 [{2-[(6-amino-5-nitro(2-pyridyl))amino]ethyl}[4-(4-ethylphenyl)-5-imidazolylpyrimidin-2-yl]amine]
  IC50: ≤ 1 µM

## CCOC(=O)c1cnc(NCCNc2ccc([N+](=O)[O-])cn2)nc1-c1ccc(-c2ccccc2)cc1 [ethyl 2-({2-[(5-nitro(2-pyridyl))amino]ethyl}amino)-4-(4-phenylphenyl)pyrimidine-5-carboxylate]
  IC50: ≤ 10 µM

## O=c1ccccn1-c1cnc(NCCNc2ccc([N+](=O)[O-])cn2)nc1-c1ccc(Cl)cc1Cl
  IC50: ≤ 1 µM

## CN(C)CCOC(=O)Nc1cnc(NCCNc2ccc([N+](=O)[O-])cn2)nc1-c1ccc(C#N)cc1 [[2-(dimethyl-amino)ethoxy]-N-[4-(4-cyanophenyl)-2-({2-[(5-nitro(2-pyridyl))amino]ethyl}amino)-pyrimidin-5-yl]carboxamide]
  IC50: ≤ 1 µM

## COc1nc(NCCNc2ncc(-c3ncc[nH]3)c(-c3ccc(Cl)cc3Cl)n2)ccc1[N+](=O)[O-] [[4-(2,4-dichlorophenyl)-5-imidazol-2-ylpyrimidin-2-yl]{2-[(6-methoxy-5-nitro(2-pyridyl))amino]ethyl}amine]
  IC50: ≤ 1 µM

## N#Cc1cnc(NCCNc2ccc([N+](=O)[O-])c(N)n2)nc1-c1ccc(Cl)cc1Cl [2-({2-[(6-amino-5-nitro(2-pyridyl))amino]ethyl}amino)-4-(2,4-dichlorophenyl)pyrimidine-5-carbonitrile]
  IC50: ≤ 1 µM

## O=[N+]([O-])c1ccc(NCCNc2ncc(CO)c(-c3ccc(Cl)cc3Cl)n2)nc1 [[4-(2,4-dichlorophenyl)-2-({2-[(5-nitro(2-pyridyl))amino]ethyl}amino)-pyrimidin-5-yl]methan-1-ol]
  IC50: ≤ 1 µM

## CN(C)CCOC(=O)c1cnc(NCCNc2ccc([N+](=O)[O-])c(N)n2)nc1-c1ccc(C#N)cc1
  IC50: ≤ 1 µM

## Cn1ccnc1-c1cnc(NCCNc2ccc([N+](=O)[O-])c(N)n2)nc1-c1ccc(Cl)cc1Cl [{2-[(6-amino-5-nitro(2-pyridyl))amino]ethyl}[4-(2,4-dichlorophenyl)-5-(1-methylimidazol-2-yl)pyrimidin-2-yl]amine]
  IC50: ≤ 1 µM

## NC(=O)c1ccc(-c2ccnc(NCc3ccncc3)n2)cc1 [4-{2-[(4-pyridylmethyl)amino]pyrimidin-4-yl}benzamide]
  IC50: ≤ 10 µM

## NC(=O)c1ccc(-c2ccnc(NCc3ccc(C(F)(F)F)cc3)n2)cc1 [4-[2-({[4-(trifluoromethyl)phenyl]methyl}amino)pyrimidin-4-yl]benzamide]
  IC50: ≤ 10 µM

## N#Cc1ccc(-c2nc(NCCNc3ccc([N+](=O)[O-])c(N)n3)ncc2-c2ncc[nH]2)cc1 [4-[2-({2-[(6-amino-5-nitro(2-pyridyl))amino]-ethyl}amino)-5-imidazol-2-ylpyrimidin-4-yl]benzenecarbonitrile]
  IC50: ≤ 1 µM

## Nc1cnc(NCCNc2ccc([N+](=O)[O-])c(N)n2)nc1-c1ccc(Cl)cc1Cl [[5-amino-4-(2,4-dichlorophenyl)pyrimidin-2-yl]{2-[(6-amino-5-nitro(2-pyridyl))amino]ethyl}amine]
  IC50: ≤ 1 µM

## CCOC(=O)c1cnc(NCCNc2ccc3ccccc3n2)nc1-c1ccc(C#N)cc1 [ethyl 4-(4-cyanophenyl)-2-{[2-(2-quinolylamino)ethyl]amino}pyrimidine-5-carboxylate]
  IC50: ≤ 10 µM

## CCOC(=O)c1c(CC)nc(NCCNc2ccccn2)nc1-c1ccc(C(N)=O)cc1 [ethyl 4-(4-carbamoylphenyl)-6-ethyl-2-{[2-(2-pyridylamino)ethyl]-amino}pyrimidine-5-carboxylate]
  IC50: ≤ 10 µM

## N#Cc1ccc(-c2nc(NCCNc3ccc([N+](=O)[O-])cn3)ncc2C#N)cc1 [4-(4-cyanophenyl)-2-({2-[(5-nitro(2-pyridyl))amino]ethyl}amino)pyrimidine-5-carbonitrile]
  IC50: ≤ 1 µM

## Nc1nc(NCCNc2nccc(-c3ccc(C(=O)NCc4ccccc4)cc3)n2)ccc1[N+](=O)[O-] [{4-[2-({2-[(6-amino-5-nitro(2-pyridyl))amino]ethyl}amino)pyrimidin-4-yl]phenyl}-N-benzylcarboxamide]
  IC50: ≤ 10 µM

## Nc1nc(NCCNc2ncc(-c3ncc[nH]3)c(-c3ccc(Br)cc3Cl)n2)ccc1[N+](=O)[O-] [{2-[(6-amino-5-nitro(2-pyridyl))amino]ethyl}[4-(4-bromo-2-chlorophenyl)-5-imidazol-2-ylpyrimidin-2-yl]amine]
  IC50: ≤ 1 µM

## Nc1nc(NCCNc2ncc(CN3CCOCC3)c(-c3ccc(Cl)cc3Cl)n2)ccc1[N+](=O)[O-] [{2-[(6-amino-5-nitro(2-pyridyl))amino]ethyl}[4-(2,4-dichlorophenyl)-5-(morpholin-4-ylmethyl)pyrimidin-2-yl]amine]
  IC50: ≤ 1 µM

## Cc1cccc(CNC(=O)c2ccc(-c3ccnc(NCCNc4ccc([N+](=O)[O-])cn4)n3)cc2)c1 [N-[(3-methylphenyl)methyl){4-[2-({2-[(5-nitro(2-pyridyl))amino]ethyl}amino)pyrimidin-4-yl]phenyl}carboxamide]
  IC50: ≤ 10 µM

## NC(=O)c1ccc(-c2ccnc(NCc3cccc(C(F)(F)F)c3)n2)cc1 [4-[2-({[3-(trifluoromethyl)phenyl]methyl}amino)pyrimidin-4-yl]-benzamide]
  IC50: ≤ 10 µM

## CCOC(=O)c1cnc(NCCNc2ccc([N+](=O)[O-])cn2)nc1-c1cccc(C#N)c1 [ethyl 4-(3-cyanophenyl)-2-({2-[(5-nitro(2-pyridyl))amino]ethyl}amino)pyrimidine-5-carboxylate]
  IC50: ≤ 10 µM

## O=C(O)c1c(-c2ccccc2)nc(NCCNc2ccc([N+](=O)[O-])cn2)nc1-c1ccccc1F [6-(2-fluorophenyl)-2-({2-[(5-nitro(2-pyridyl))amino]ethyl}amino)-4-phenyl-pyrimidine-5-carboxylic acid]
  IC50: ≤ 10 µM

## NC(=O)c1ccc(-c2ccnc(NCCCOc3cccc(Br)c3)n2)cc1 [4-(2-{[3-(3-bromophenoxy)propyl]-amino}pyrimidin-4-yl)benzamide]
  IC50: ≤ 10 µM

## O=[N+]([O-])c1ccc(NCCNc2nccc(-c3ccc(O)cc3)n2)nc1 [4-[2-({2-[(5-nitro-2-pyridyl)-amino]ethyl}amino)pyrimidin-4-yl]phenol]
  IC50: ≤ 10 µM

## CCOC(=O)c1c(CC)nc(NCCNc2ccc(C(F)(F)F)cn2)nc1-c1ccc(C(N)=O)cc1 [ethyl 4-(4-carbamoylphenyl)-6-ethyl-2-[(2-{[5-(trifluoromethyl)(2-pyridyl)]amino}-ethyl)amino]pyrimidine-5-carboxylate]
  IC50: ≤ 10 µM

## O=C(NCc1ccccc1)c1ccc(-c2ccnc(NCCc3ccccn3)n2)cc1 [N-benzyl(4-{2-[(2-(2-pyridyl)ethyl)amino]pyrimidin-4-yl}phenyl)carboxamide]
  IC50: ≤ 10 µM

## O=[N+]([O-])c1ccc(NCCNc2ncc(-n3cccn3)c(-c3ccc(Cl)cc3Cl)n2)nc1
  IC50: ≤ 1 µM

## CCOC(=O)c1c(-c2ccncc2)nc(NCCNc2ccc([N+](=O)[O-])cn2)nc1-c1ccc(C(N)=O)cc1
  IC50: ≤ 1 µM

## Cc1nc(NCCNc2ccc([N+](=O)[O-])cn2)ncc1C(=O)O [4-methyl-2-({2-[(5-nitro(2-pyridyl))amino]ethyl}amino)pyrimidine-5-carboxylic acid]
  IC50: ≤ 10 µM

## CNCc1cccc(-c2cccc(CNc3nccc(-c4ccc(C(N)=O)cc4)n3)c2)c1 [4-(2-{[(3-{3-[(methylamino)methyl]phenyl}-phenyl)methyl]amino}pyrimidin-4-yl)benzamide]
  IC50: ≤ 10 µM
